According to paper PMC11984392, “EphA2-targeted alpha-particle theranostics for enhancing PDAC treatment” (Theranostics, 2025):
*1 amine or outer side, *2 acyl side, *3 side chain or, on linkers, in order; H or OH if unused. Where a SMILES comes first, the peptide text is derived from it. Bridges are numbered along the chain shown (N, C = ends). [ ]: non-standard residue; d: D form. The star is where a group is joined. TATA = O=C(CC[*:1])N1CN(C(=O)CC[*:2])CN(C(=O)CC[*:3])C1; NOTA = O=C(O)CN1CCN(CC(=O)O)CCN(CC(=O)*)CC1; Hyp = O=C(O)[C@@H]1C[C@@H](O)CN1; hArg = N=C(N)NCCCC[C@H](N)C(=O)O; PEG2 = NCCOCCOCCC(=O)O; Sar = CNCC(=O)O

Test: Human radiation dosimetry estimates (MIRDCalc)
Description: Pharmacokinetic data obtained from biodistribution studies of Panc1 tumor-bearing mice were utilized to predict the time-integrated activity coefficients (TIACs, formerly known as residence times) of [^68Ga]AJ201 in humans, as previously described [28]-[30]. These TIAC estimates were then input into MIRDCalc to determine the absorbed dose coefficients for organs from ^68Ga using the ICRP adult female reference phantom (Table S4).

[1] = absorbed dose coefficient, MIRDCalc, ICRP adult female reference phantom
[2] = absorbed dose coefficient, MIRDCalc, ICRP adult female reference phantom, listed as [68Ga]AJ201
[3] = predicted for humans from Panc1 mouse biodistribution

CC(C)C[C@@H]1NC(=O)[C@@H]2CSCCC(=O)N3CN(CN(C3)C(=O)CCSC[C@H](NC(=O)[C@H](CC(=O)O)NC(=O)[C@H](CCCCNC(=N)N)NC(=O)[C@H](C)NC(=O)CNC(=O)CN(C)C(=O)CN(C)C(=O)CN(C)C(=O)[C@H](CCCNC(=N)N)NC(=O)CNC(=O)CCOCCOCCNC(=O)CN3CCN(CC(=O)O)CCN(CC(=O)O)CC3)C(=O)N3C[C@H](O)C[C@H]3C(=O)N[C@@H](CC(C)C)C(=O)N[C@@H](C(C)C)C(=O)N[C@@H](CC(N)=O)C(=O)N3CCC[C@H]3C(=O)N[C@@H](CC(C)C)C(=O)N2)C(=O)CCSC[C@@H](C(N)=O)NC(=O)[C@H](CCCCNC(=N)N)NC(=O)[C@H](Cc2c[nH]c3ccccc23)NC(=O)[C@@H](CC(=O)O)NC(=O)[C@@H]2CCCN2C(=O)[C@H](Cc2c[nH]cn2)NC1=O [[^68Ga]AJ201, metal not drawn] ({NOTA-PEG2}-GR[Sar][Sar][Sar]GA[hArg]DC[Hyp]LVNPLCLHP[dD]W[hArg]C-NH2; linker 10-17-24 via TATA)
Organ dose, Adrenals [1]: 0.06 rem/mCi
Organ dose, Bladder [1]: 0.15 rem/mCi
Organ dose, Brain [1]: 0.003215 rem/mCi
Organ dose, Femur [1]: 0.01421 rem/mCi
Organ dose, Heart [1]: 0.03275 rem/mCi
Organ dose, Kidney [1]: 0.38 rem/mCi
Organ dose, Large Intestine [1]: 0.01839 rem/mCi
Organ dose, Liver [1]: 0.02398 rem/mCi
Organ dose, Lung [1]: 0.04 rem/mCi
Organ dose, Muscle [1]: 0.00962 rem/mCi
Organ dose, Pancreas [1]: 0.02708 rem/mCi
Organ dose, Small intestine [1]: 0.01639 rem/mCi
Organ dose, Spleen [1]: 0.03644 rem/mCi
Organ dose, Stomach with contents [1]: 0.0158 rem/mCi
Organ dose, Thymus [1]: 0.02016 rem/mCi
Organ dose, Adrenals [2]: 0.06253 rem/mCi
Organ dose, Bladder [2]: 0.1513 rem/mCi
Organ dose, Kidney [2]: 0.3885 rem/mCi
Organ dose, Lung [2]: 0.04292 rem/mCi
Estimated effective dose equivalent (at 13 mCi dose, human estimate): less than 5 rem
Dose that can be safely administered for PET imaging (human estimate): 13 mCi
Residence time (TIAC), Adrenals [3]: 0.0002761 h
Residence time (TIAC), Bladder [3]: 0.006394 h
Residence time (TIAC), Blood [3]: 0.05152 h
Residence time (TIAC), Brain [3]: 0.0008446 h
Residence time (TIAC), Femur [3]: 0.005607 h
Residence time (TIAC), Heart [3]: 0.001764 h
Residence time (TIAC), Kidney [3]: 0.08395 h
Residence time (TIAC), Large Intestine [3]: 0.001341 h
Residence time (TIAC), Liver [3]: 0.01723 h
Residence time (TIAC), Lung [3]: 0.01099 h
Residence time (TIAC), Muscle [3]: 0.07064 h
Residence time (TIAC), Pancreas [3]: 0.0006321 h
Residence time (TIAC), Small intestine [3]: 0.003647 h
Residence time (TIAC), Spleen [3]: 0.002451 h
Residence time (TIAC), Stomach with contents [3]: 0.0004823 h
Residence time (TIAC), Thymus [3]: 0.0002384 h
